Data: patent US12421254B2, “KRAS modulators and uses thereof” (Quanta Therapeutics, Inc., priority 2023, dated 2025)

Key:
[1] = biological target: GST-tagged KRAS-G12D (2-169) (Homo sapiens, UniProt P01116, G12D); test: Nucleotide exchange assay (NEA), SOS-mediated, HTRF, KRAS G12D; type: biochemical; conditions: Table 4; IC50 extracted at 30 min; 20 nM SOScat; read-out: NEA G12D IC50
How it was run: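 Compound preincubated 1 h at RT with 0.25 nM GST-KRAS-G12D (2-169) and anti-GST Tb donor, then 20 nM SOS1cat (564-1049) and 150 nM GTP-DY-647P1 added; pH 7.3 HEPES buffer with MgCl2 and DTT. HTRF monitored at RT; % inhibition versus DMSO and no-SOS blank, 4-parameter IC50 taken at 30 min.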

[2] = biological target: GST-tagged KRAS-G12V (2-169) (Homo sapiens, UniProt P01116, G12V); test: Nucleotide exchange assay (NEA), SOS-mediated, HTRF, KRAS G12V; type: biochemical; conditions: Table 4; IC50 extracted at 90 min; 80 nM SOS
Chain of GST-tagged KRAS-G12V (2-169) (P01116 2-169 isoform P01116-2 G12V): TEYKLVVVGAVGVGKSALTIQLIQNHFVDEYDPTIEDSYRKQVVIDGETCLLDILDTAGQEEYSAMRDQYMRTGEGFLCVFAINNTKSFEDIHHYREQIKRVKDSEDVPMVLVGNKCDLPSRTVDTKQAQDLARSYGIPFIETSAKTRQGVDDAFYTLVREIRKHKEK
How it was run: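 GST-KRAS-G12V (2-169), 0.25 nM, pre-incubated 1 h at RT with compound, then SOS1cat (564-1049) 80 nM and GTP-DY-647P1 150 nM added in HEPES pH 7.3 buffer with MgCl2 and DTT. HTRF via anti-GST Tb cryptate read over 90 min; IC50 from 4-parameter fit at 90 min, blanked to no-SOS reactions.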

[3] = tested on: phospho-ERK in GP2D (KRAS-G12D) cells; test: pERK In Cell Western (ICW) assay (Method B), GP2D; type: cell-based; conditions: GP2d, 3 h, Table 4
Description: (§1) pERK ICW is a high throughput screening assay to evaluate the cellular potency of mutant KRAS small molecule inhibitors. KRAS mutant cell lines AGS, GP2D (KRAS-G12D) as well as SW620 (KRAS-G12V) were purchased from ATCC and maintained respectively in RPMI/DMEM/RPMI medium supplemented with 10% fetal bovine serum.
(§2) Cells grown in exponential phase were trypsinized, resuspended in fresh media, and viable cells were counted using a cell counter with Trypan Blue (BioRad TC20). Cells were seeded into 384-well plate (Greiner 781091) at density of 5,000 cells/well for AGS and 10,000 cells/well for GP2D/SW620 and allowed to grow overnight in a 37° C. CO2 incubator. The next day, compounds were dispensed into wells with a ½ log, 9-point serial dilution using a Tecan D300e dispenser and incubated for 3 hours in a 37° C. CO2 incubator. Cells were then fixed with paraformaldehyde (Electron Microscopy Sciences, 15710, 4% final concentration) for 30 min, permeabilized with wash buffer (1×PBS+0.1% Triton X-100) for 30 min and blocked with Odyssey blocking buffer (Li—COR 927-70001) for 1 hour, all at room temperature (RT). Phospho-ERK antibody (CST 4370L) was diluted 1:500 in Odyssey T20 (PBS) antibody diluent (Li—COR 927-75001) and incubated with cells overnight at 4° C. The next day, plates were washed 5× with wash buffer, incubated with IRDye 800 CW, Goat anti-Rabbit secondary antibody (Li—COR 926-32211, 1:800) and DRAQ5 (CST 4084L, 1:5,000) diluted in Odyssey T20 (PBS) antibody diluent for 1 hour, washed 5×, and imaged on an Odyssey CLx imaging system.
(§3) For data analysis, signal intensities from 800 (phosphor-ERK) and 700 (DRAQ5) channels were extracted, and phospho-ERK signals were normalized to DRAQ5 signals for each well and percent of blank control values were computed. Data were then imported into Graphpad Prism to compute half-maximal inhibitory concentrations (IC50) using a 4-parameter variable slope model. Z-factor for each plate was computed from signals derived from wells treated with either DMSO or 5 μM of control compound. AGS pERK ICW (Method B) IC50 (uM) values of selected compounds are depicted in Table 2 with compounds having a value ≥0.001 uM to 0.01 uM as ++++; ≥0.01 uM to 0.1 uM as +++; ≥0.1 uM to 1 uM as ++; ≥1 uM to 10 uM as + and ≥10 uM as NA.

[4] = tested on: phospho-ERK in SW620 (KRAS-G12V) cells; test: pERK In Cell Western (ICW) assay (Method B), SW620; type: cell-based; conditions: Homo sapiens, SW-620, 3 h, Table 4
Description: as §1, §2, §3

Chain of GST-tagged KRAS-G12D (2-169) (P01116 2-169 isoform P01116-2 G12D): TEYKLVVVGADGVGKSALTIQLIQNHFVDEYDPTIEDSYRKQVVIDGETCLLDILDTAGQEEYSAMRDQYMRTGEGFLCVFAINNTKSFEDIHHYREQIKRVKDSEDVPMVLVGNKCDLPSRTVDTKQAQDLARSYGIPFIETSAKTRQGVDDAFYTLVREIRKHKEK

Row | Structure (SMILES) | IC50 [1] [nM] | IC50 [2] [nM] | IC50 [3] [nM] | IC50 [4] [nM]
1 | N#Cc1c(N)sc2c1C1(CN(c3nc(OCC4(CN5CCOCC5)CC4)nc(N4C[C@@H]5CC[C@@H](N5)C4CO)n3)C1)SC2 (stereo partly drawn) [Compound 188, 2′-amino-1-(4-((1R,5S)-2-(hydroxymethyl)-3,8-diazabicyclo[3.2.1]octan-3-yl)-6-((1-(morpholinomethyl)cyclopropyl)methoxy)-1,3,5-triazin-2-yl)-6′H-spiro[azetidine-3,4′-thieno[3,4-b]thiophene]-3′-carbonitrile] | < 10 | 10 to 100 | < 10 | 
2 | N#CCC1C=C(F)CN(c2nc(OC[C@@]34CCCN3C[C@H](F)C4)nc(N3CC4(CCc5sc(N)c(C#N)c54)C3)n2)C1 (stereo partly drawn) [Compound 25, 2-amino-1′-[4-[3-(cyanomethyl)-5-fluoro-3,6-dihydro-2H-pyridin-1-yl]-6-[[(2R,8S)-2-fluoro-1,2,3,5,6,7-hexahydropyrrolizin-8-yl]methoxy]-1,3,5-triazin-2-yl]spiro[5,6-dihydrocyclopenta[b]thiophene-4,3′-azetidine]-3-carbonitrile] | 10 to 100 | 10 to 100 | 100 to 1000 | 
3 | C[C@@H]1[C@H](CO)CCCN1c1nc(OC[C@@]23CCCN2C[C@H](F)C3)nc(N2CC3(CCc4sc(N)c(C#N)c43)C2)n1 (racemic) [Compound 24, 2-amino-1′-[4-[[(2R,8S)-2-fluoro-1,2,3,5,6,7-hexahydropyrrolizin-8-yl]methoxy]-6-[rac-(2R,3R)-3-(hydroxymethyl)-2-methyl-1-piperidyl]-1,3,5-triazin-2-yl]spiro[5,6-dihydrocyclopenta[b]thiophene-4,3′-azetidine]-3-carbonitrile] | 100 to 1000 | 100 to 1000 | 1000 to 20000 | 
4 | N#Cc1c(N)sc2c1C1(CC2)CN(c2nc(OC[C@@]34CCCN3C[C@H](F)C4)nc(N3CCc4noc(N)c4C3)n2)C1 [Compound 31, 2-amino-1′-[4-(3-amino-6,7-dihydro-4H-isoxazolo[4,3-c]pyridin-5-yl)-6-[[(2R,8S)-2-fluoro-1,2,3,5,6,7-hexahydropyrrolizin-8-yl]methoxy]-1,3,5-triazin-2-yl]spiro[5,6-dihydrocyclopenta[b]thiophene-4,3′-azetidine]-3-carbonitrile] | 10 to 100 | 100 to 1000 | 100 to 1000 | 
5 | C[C@@]1(O)CCCN(c2nc(OC[C@@]34CCCN3C[C@H](F)C4)nc(N3CC4(CCCc5sc(N)c(C#N)c54)C3)n2)C1 [Compound 30, 2-amino-1′-[4-[[(2R,8S)-2-fluoro-1,2,3,5,6,7-hexahydropyrrolizin-8-yl]methoxy]-6-[(3R)-3-hydroxy-3-methyl-1-piperidyl]-1,3,5-triazin-2-yl]spiro[6,7-dihydro-5H-benzothiophene-4,3′-azetidine]-3-carbonitrile] | 10 to 100 | 10 to 100 | 100 to 1000 | 
6 | CCN(CC1(C#N)CC1)c1nc(OC[C@@]23CCCN2C[C@H](F)C3)nc(N2CC3(C2)SCc2sc(N)c(C#N)c23)n1 [Compound 241, 2-amino-1′-[4-[(1-cyanocyclopropyl)methyl-ethyl-amino]-6-[[(2R,8S)-2-fluoro-1,2,3,5,6,7-hexahydropyrrolizin-8-yl]methoxy]-1,3,5-triazin-2-yl]spiro[6H-thieno[2,3-c]thiophene-4,3′-azetidine]-3-carbonitrile] | < 10 | < 10 |  | 100 to 1000
7 | C#CC(C)N(CC#N)c1nc(OC[C@@]23CCCN2C[C@H](F)C3)nc(N2CC3(C2)SCc2sc(N)c(C#N)c23)n1 (stereo partly drawn) [Compound 244, 2-amino-1′-[4-[cyanomethyl(1-methylprop-2-ynyl)amino]-6-[[(2R,8S)-2-fluoro-1,2,3,5,6,7-hexahydropyrrolizin-8-yl]methoxy]-1,3,5-triazin-2-yl]spiro[6H-thieno[3,4-b]thiophene-4,3′-azetidine]-3-carbonitrile] | < 10 | < 10 |  | 100 to 1000
8 | C#CCN(c1nc(OC[C@@]23CCCN2C[C@H](F)C3)nc(N2CC3(C2)SCc2sc(N)c(C#N)c23)n1)C1(C#N)CC1 [Compound 247, 2-amino-1′-[4-[(1-cyanocyclopropyl)-prop-2-ynyl-amino]-6-[[(2R,8S)-2-fluoro-1,2,3,5,6,7-hexahydropyrrolizin-8-yl]methoxy]-1,3,5-triazin-2-yl]spiro[6H-thieno[3,4-b]thiophene-4,3′-azetidine]-3-carbonitrile] | < 10 | < 10 |  | 100 to 1000
9 | C#CCN(CC#N)c1nc(OC[C@@]23CCCN2C[C@H](F)C3)nc(N2CC3(C2)SCc2sc(N)c(C#N)c23)n1 [Compound 243, 2-amino-1′-[4-[cyanomethyl(prop-2-ynyl)amino]-6-[[(2R,8S)-2-fluoro-1,2,3,5,6,7-hexahydropyrrolizin-8-yl]methoxy]-1,3,5-triazin-2-yl]spiro[6H-thieno[3,4-b]thiophene-4,3′-azetidine]-3-carbonitrile] | < 10 | < 10 |  | 100 to 1000
10 | N#CCN(c1nc(OC[C@@]23CCCN2C[C@H](F)C3)nc(N2CC3(C2)SCc2sc(N)c(C#N)c23)n1)C1(C#N)CC1 [Compound 251, 2-amino-1′-[4-[(1-cyanocyclopropyl)-(cyanomethyl)amino]-6-[[(2R,8S)-2-fluoro-1,2,3,5,6,7-hexahydropyrrolizin-8-yl]methoxy]-1,3,5-triazin-2-yl]spiro[6H-thieno[3,4-b]thiophene-4,3′-azetidine]-3-carbonitrile] | < 10 | < 10 |  | 10 to 100
11 | N#Cc1c(N)sc2c1C1(CN(c3nc(OC[C@@]45CCCN4C[C@H](F)C5)nc(N(CCO)CC4(C#N)CC4)n3)C1)SC2 [Compound 239, 2-amino-1′-[4-[(1-cyanocyclopropyl)methyl-(2-hydroxyethyl)amino]-6-[[(2R,8S)-2-fluoro-1,2,3,5,6,7-hexahydropyrrolizin-8-yl]methoxy]-1,3,5-triazin-2-yl]spiro[6H-thieno[2,3-c]thiophene-4,3′-azetidine]-3-carbonitrile] | < 10 | < 10 |  | 100 to 1000
12 | CCN(c1nc(OC[C@@]23CCCN2C[C@H](F)C3)nc(N2CC3(C2)SCc2sc(N)c(C#N)c23)n1)[C@H](C)C#N [Compound 236, 2-amino-1′-[4-[[(1R)-1-cyanoethyl]-ethyl-amino]-6-[[(2R,8S)-2-fluoro-1,2,3,5,6,7-hexahydropyrrolizin-8-yl]methoxy]-1,3,5-triazin-2-yl]spiro[6H-thieno[3,4-b]thiophene-4,3′-azetidine]-3-carbonitrile; formic acid] | < 10 | < 10 |  | 10 to 100
13 | CC(CC#N)N(C)c1nc(OC[C@@]23CCCN2C[C@H](F)C3)nc(N2CC3(C2)SCc2sc(N)c(C#N)c23)n1 (stereo partly drawn) [Compound 249, 2-amino-1′-[4-[(2-cyano-1-methyl-ethyl)-methyl-amino]-6-[[(2R,8S)-2-fluoro-1,2,3,5,6,7-hexahydropyrrolizin-8-yl]methoxy]-1,3,5-triazin-2-yl]spiro[6H-thieno[2,3-c]thiophene-4,3′-azetidine]-3-carbonitrile] | < 10 | < 10 |  | 1000 to 20000
14 | N#CCN(Cc1c[nH]nn1)c1nc(OC[C@@]23CCCN2C[C@H](F)C3)nc(N2CC3(C2)SCc2sc(N)c(C#N)c23)n1 [Compound 245, 2-amino-1′-[4-[cyanomethyl(1H-triazol-4-ylmethyl)amino]-6-[[(2R,8S)-2-fluoro-1,2,3,5,6,7-hexahydropyrrolizin-8-yl]methoxy]-1,3,5-triazin-2-yl]spiro[6H-thieno[3,4-b]thiophene-4,3′-azetidine]-3-carbonitrile] | < 10 | < 10 |  | 1000 to 20000
